Measurements from patent US20010003751A1, “Pharmaceutical composition for treating transient ischemic attack” (priority 1995, published 2001).

Test system: transient ischemic attack (TIA) associated with the internal carotid arterial system
Test: phase III clinical study of TIA (efficacy in suppressing TIA recurrence, overall safety, utility ratings)
Format: in vivo, human (TIA patients)
Details: TIA patients; for Efficacy (%): Effective / Efficacy (%): Indeterminable / Efficacy (%): Ineffective / Efficacy (%): Slightly Effective / Efficacy (%): Worsened: ITT
Experimental: Subjects and total number: The subjects of this study were patients who developed one or more TIA attacks associated with the internal carotid arterial system (NIH Diagnostic Criteria, 1990) during the 3-month period before initial administration (171 for efficacy and utility, 175 for safety). Tablets each containing 50 mg or 100 mg of the subject compound obtained in Example 1 were orally administered after breakfast once daily for 18 months. The study was conducted in double blind fashion. As regards conversion to cerebral infarction, temporal changes in TIA onset frequency, TIA symptoms and duration, etc., efficacy was rated at 6 months, 1 year and 18 months of administration, using a 5-grade rating system: The attack frequency at time of rating (during therapeutic period) 1 year and 18 months after initial administration served as an efficacy rating index. For rating at 6 months of administration and rating at less than 1 year due to discontinuation (adverse reactions etc.), rating was in regard to duration of administration period, with reference to the following rating criteria. [table] Overall safety was rated on the basis of adverse reactions, complications, and presence or absence of abnormal changes in clinical laboratory parameters and their degrees, using a 5-grade rating system: On the basis of efficacy and overall safety ratings for suppression of TIA recurrence, utility was rated using a 5-grade rating system: With regard to the above rating items, data were analyzed using ITT (intent-to-treat analysis), with the utility rating in overall assessment at final administration (18 months after administration) as the major item.

[1] = 50 mg/day oral once daily for 18 months, 86 patients
[2] = 50 mg/day oral once daily for 18 months, 85 patients
[3] = 100 mg/day oral once daily for 18 months, 89 patients
[4] = 100 mg/day oral once daily for 18 months, 86 patients

SMILES: O=C(O)CCCC/C=C(\c1ccccc1)c1cccnc1 [Test compound, (E)-7-(3-pyridyl)-7-phenyl-6-heptenic acid]
- Overall Safety (%): Considerably Problematic [1]: 1.2%
- Overall Safety (%): Indeterminable [1]: 4.7%
- Overall Safety (%): No Problem [1]: 86.0%
- Overall Safety (%): Slightly Problematic [1]: 8.1%
- Overall Safety (%): Very Problematic [1]: 0%
- Efficacy (%): Effective [2]: 64.7%
- Efficacy (%): Indeterminable [2]: 10.6%
- Efficacy (%): Ineffective [2]: 16.5%
- Efficacy (%): Slightly Effective [2]: 2.3%
- Efficacy (%): Worsened [2]: 5.9%
- Overall Safety (%): Considerably Problematic [3]: 1.1%
- Overall Safety (%): Indeterminable [3]: 3.4%
- Overall Safety (%): No Problem [3]: 79.8%
- Overall Safety (%): Slightly Problematic [3]: 13.5%
- Overall Safety (%): Very Problematic [3]: 2.2%
- Efficacy (%): Effective [4]: 66.3%
- Efficacy (%): Indeterminable [4]: 11.6%
- Efficacy (%): Ineffective [4]: 8.1%
- Efficacy (%): Slightly Effective [4]: 7.0%
- Efficacy (%): Worsened [4]: 7.0%
